Experimental data published in patent US20040029196A1, “Epithelial cell lines from gene knockout mice and methods of use thereof” (priority 2001, published 2004).
Marks after values point to notes of the source that are not given here.

Legend:
Apc [+/−] 1638NCOL cells [1] = assay: Cytostatic growth arrest (cell population doubling); assay type: cell-based, mouse; conditions: for No. of population doublings: mean ± SD, n = 3
Method: (§1) Differential susceptibility of C57COL (wild type Ape [+/+]), the control cell line, and 1638NCOL (Apc [+/−]) to growth inhibition by mechanistically distinct prototype chemopreventive test compounds was evaluated in a conventional cell survival assay, while the preventive efficacy of the test compounds was evaluated using optimized quantitative flow cytometry-based cell cycle analysis. Optimization of flow cytometry based cell cycle analysis is published (7, 8, 10, 11) and is needed in view of batch-to-batch variations in commercially available fluorescein isothiocyanate-conjugated antibodies.
(§2) Selective susceptibility of Ape [+/−] 1638NCOL cells to a prototype chemopreventive agent sulindac (SUL) was examined by comparing its effect on Ape [+/+] C57COL and Ape [+/−] 1638NCOL cells. The cytostatic growth arrest response, evidenced by a decrease in cell population doubling, was about 2-3 fold higher in Ape [+/−] cells as compared to that of Ape [+/+] cells (Table 3).
The dose response and efficacy studies involved treatment of cell cultures with five log μM concentrations of each compound (0.01, 0.1, 1.0, 10.0 and 100.0 μM). […] The cytostatic effect of treatment with high doses (100 μM) was associated with down regulated cell population doubling, altered aneuploid G0/G1: S+G2/M ratio, and decreased number of anchorage independent colonies (Table 4).
(§3) The cell lines were characterized for expression of epithelium specific proteins (cytokeratins), Apc gene product (full length, as opposed to truncated forms which are differentially reactive to carboxyl and amino terminal Apc antibodies), and cytodifferentiation (MUC1, acid mucopolysaccharide, alkaline phosphatase) using standard assays for immunocytochemical analysis. The growth kinetics were determined based on the time-dependent increase in the number of viable cells relative to the initial seeding density. The cell cycle progression and anchorage-independent growth were determined using fluorescence assisted flow cytometry and colony forming assays, respectively, as previously described (4, 7-11). The expression profile of specific gene products (proteins) involved in the regulation of cell cycle progression, apoptosis, and differentiation was also quantified using recently optimized cellular epifluorescence assays (10, 11).

Apc [+/−] 1638NCOL cells [2] = assay: Dose response in conventional cell survival assay (growth arrest, toxicity); assay type: cell-based, mouse; parameters: key to Toxicity: +: Toxicity, surviving cell population lower than initial seeding density; conditions: for No effect: 0.01 μM
Method: as §1
The dose response and efficacy studies involved treatment of cell cultures with five log μM concentrations of each compound (0.01, 0.1, 1.0, 10.0 and 100.0 μM).

Apc [+/−] 1638NCOL cells [3] = assay: Flow cytometry-based aneuploid cell cycle progression analysis; parameters: species or system mouse; conditions: for G0/G1:S + G2/M ratio (aneuploid cell cycle progression): mean ± SD, n = 3
Method: Aneuploidy: Fluorescence assisted cell sorting and flow cytometry of cells stained with DNA binding fluorescent dyes. Diploid and aneuploid cells accumulate as distinct peaks on the DNA histograms obtained from flow cytometric analysis.
as §1, §3

Apc [+/−] 1638NCOL cells [4] = assay: Anchorage-independent growth (soft agar colony formation); assay type: cell-based, mouse; conditions: 100 μM
Text: Anchorage-independent growth: The ‘soft’ agar growth assay monitors the ability of cells to form non adherant colonies. Single cells suspended in 0.33% agar are overlaid on a basement matrix. These cultures are maintained for about 10-14 days and resulting colonies are counted.
as §3

C57COL (Apc [+/+]) cells = assay: Cytostatic growth arrest (cell population doubling), control cell line; assay type: cell-based, mouse
Method: as §1, §2, §3

Structure (SMILES)	% Change in no. of population doublings versus EtOH control (Apc [+/−] 1638NCOL cells [1]; 1 μM)	No. of population doublings (Apc [+/−] 1638NCOL cells [1]; 1 μM)	% Change in no. of population doublings versus EtOH control (Apc [+/−] 1638NCOL cells [1]; 100 μM) [%]	Cell Population Doubling (Apc [+/−] 1638NCOL cells [1]; 100 μM)	No. of population doublings (Apc [+/−] 1638NCOL cells [1]; 100 μM)	No effect (Apc [+/−] 1638NCOL cells [2])	Growth arrest (%) (Apc [+/−] 1638NCOL cells [2]; 1 μM (Table 8))	Growth arrest (%) (Apc [+/−] 1638NCOL cells [2]; 100 μM)	Growth arrest (%) (Apc [+/−] 1638NCOL cells [2]; 100 μM (Table 8))	Growth arrest (%) (Apc [+/−] 1638NCOL cells [2]; 0.1-10 μM)	G0/G1:S + G2/M ratio (aneuploid cell cycle progression) (Apc [+/−] 1638NCOL cells [3]; 1 μM)	Aneuploid G0/G1:S + G2/M ratio (Apc [+/−] 1638NCOL cells [3]; 100 μM)	Cell cycle phase (Apc [+/−] 1638NCOL cells [3]; 100 μM)	G0/G1:S + G2/M ratio (aneuploid cell cycle progression) (Apc [+/−] 1638NCOL cells [3]; 100 μM)	Anchorage-independent colonies (Apc [+/−] 1638NCOL cells [4])	% Change in no. of population doublings versus EtOH control (Apc [+/−] 1638NCOL cells [1]; 10 μM) [%]	No. of population doublings (Apc [+/−] 1638NCOL cells [1]; 10 μM)	Growth arrest (%) (Apc [+/−] 1638NCOL cells [2]; 10 μM (Table 8))	Toxicity (Apc [+/−] 1638NCOL cells [2]; 100 μM)	Cell cycle phase (Apc [+/−] 1638NCOL cells [3]; 1 μM)	further results
CC1=C(CC(=O)O)c2cc(F)ccc2/C1=C\c1ccc([S+](C)[O-])cc1 (stereo not shown) [SUL, Sulindac]	−23.2%	7.6 ± 0.3	−61.6	3.8 ± 0.2	3.8 ± 0.2^c	+ (No effect <20% inhibition of surviving cell population)	30	70	70	30%	6.6 ± 0.4^d	13.9 ± 0.5	G1arrest	13.9 ± 0.8^c	0.5 ± 0.3						Cell Population Doubling at Day 5 Post-Seeding (Apc [+/−] 1638NCOL cells [1]; 1638NCOL (Apc [+/−]), SUL 1 μM): 4.8 ± 0.6; Cell Population Doubling at Day 5 Post-Seeding (Apc [+/−] 1638NCOL cells [1]; 1638NCOL (Apc [+/−]), SUL 10 μM): 4.4 ± 0.4; Cell Population Doubling at Day 5 Post-Seeding (Apc [+/−] 1638NCOL cells [1]; 1638NCOL (Apc [+/−]), SUL 100 μM): 2.3 ± 0.3; Cytostatic growth arrest response (decrease in cell population doubling) in Apc [+/−] cells as compared to Apc [+/+] cells (Apc [+/−] 1638NCOL cells [1]; 1638NCOL versus C57COL): 2-3 fold; inhibition at 1 µM (Apc [+/−] 1638NCOL cells [1]; Mus musculus, 120 h, 1638NCOL (Apc [+/−]), SUL 1 μM, day 5): 34.2%; inhibition at 10 µM (Apc [+/−] 1638NCOL cells [1]; Mus musculus, 120 h, 1638NCOL (Apc [+/−]), SUL 10 μM, day 5): 39.7%; inhibition at 100 µM (Apc [+/−] 1638NCOL cells [1]; Mus musculus, 120 h, 1638NCOL (Apc [+/−]), SUL 100 μM, day 5): 68.5%; inhibition at 1 µM (C57COL (Apc [+/+]) cells; Mus musculus, 120 h, SUL 1 μM, day 5): 10.2%; inhibition at 10 µM (C57COL (Apc [+/+]) cells; Mus musculus, 120 h, SUL 10 μM, day 5): 15.4%; inhibition at 100 µM (C57COL (Apc [+/+]) cells; Mus musculus, 120 h, SUL 100 μM, day 5): 71.8%; Cell Population Doubling at Day 5 Post-Seeding (C57COL (Apc [+/+]) cells; SUL 1 μM): 3.5 ± 0.4; Cell Population Doubling at Day 5 Post-Seeding (C57COL (Apc [+/+]) cells; SUL 10 μM): 3.3 ± 0.7; Cell Population Doubling at Day 5 Post-Seeding (C57COL (Apc [+/+]) cells; SUL 100 μM): 1.1 ± 0.5
NCCCNCCSP(=O)(O)O [AMF, Amifostine]	−17.2%	8.2 ± 0.2				+ (No effect <20% inhibition of surviving cell population)	25			25-40%	9.6 ± 0.7					−37.4	6.2 ± 0.3	40	+		Cell cycle phase (Apc [+/−] 1638NCOL cells [3]; 10 μM): G1 arrest; G0/G1:S + G2/M ratio (aneuploid cell cycle progression) (Apc [+/−] 1638NCOL cells [3]; 10 μM): 10.9 ± 0.6^c
Cc1c(-c2cnccn2)ssc1=S [OLT, Oltipraz]	+8.1%	10.7 ± 0.2	−15.1	8.4 ± 0.4	8.4 ± 0.4	+ (No effect <20% inhibition of surviving cell population)	2	25	25	2%	1.0 ± 0.2^d	7.2 ± 0.1	S,G2M arrest	1.2 ± 0.1^d	15.8 ± 1.8					S,G2M arrest	
CC/C(=C(\c1ccccc1)c1ccc(OCCN(C)C)cc1)c1ccccc1 [TAM, Tamoxifen]	−23.2%	7.6 ± 0.4				+ (No effect <20% inhibition of surviving cell population)	20			20-30%	2.7 ± 0.9^d					−28.3	7.1 ± 0.2	30	+	S,G2M arrest	Cell cycle phase (Apc [+/−] 1638NCOL cells [3]; 10 μM): S,G2M arrest; G0/G1:S + G2/M ratio (aneuploid cell cycle progression) (Apc [+/−] 1638NCOL cells [3]; 10 μM): 1.8 ± 0.8^d
CC1=C(/C=C/C(C)=C\C=C\C(C)=C\C(=O)O)C(C)(C)CCC1 [Agent 9cisRA, 9cis retinoic acid]	−32.3%	6.7 ± 0.2	−53.5	4.6 ± 0.1	4.6 ± 0.1^c	+ (No effect <20% inhibition of surviving cell population)	30	60	60	30%	13.8 ± 0.5^c	18.5 ± 0.2	G1 arrest	22.1 ± 0.6^c	4.4 ± 1.2					G1 arrest	
